Laboratory results published in patent publication EP2135515A1, “Taste enhancing compound” (FIRMENICH SA, priority 2008, dated 2009).

Assay: Half-tongue test: recognition threshold for velvety mouthcoating, trained sensory panel
Format: in vivo
Settings: Homo sapiens, pH 4.5, read-out: Mouthfeel threshold
Procedure: The threshold at which the compound delivered a noticeable velvety mouthcoating was evaluated as follows:
The isolated compound was suspended in water, and, after removing the volatiles in high vacuum (<5 mPa), was freeze-dried twice.
The freeze-dried sample was taken up in water, adjusted to pH 4.5 using hydrochloric acid, and stepwise diluted (1+1) with water. This is referred to herein as "sample 1". A second sample was prepared comprising water (Evian®) adjusted to pH 4.5 using hydrochloric acid. This is referred to herein as "sample 2". Both samples were stored at room temperature.
Twelve panelists with no history of known taste disorders were trained to evaluate the taste of aqueous solutions (2 mL each) of the following standard taste compounds in bottled water (pH 4.5) by using a triangle test as described in the literature (20): sucrose (50 mmol/L) for sweet taste, lactic acid (20 mmol/L) for sour taste, NaCl (20 mmol/L) for salty taste, caffeine (1 mmol/L) for bitter taste, sodium glutamate (3 mmol/L) for umami taste. For the puckering astringency and the velvety astringent, mouth-drying oral sensation, the panel was trained by using gallustannic acid (0.05%) and quercetin-3-O-β-D-glucopyranoside (0.01 mmol/L), respectively, using the half-tongue test (see Scharbert S., Holzmann N., Hofmann T. Identification of the astringent taste compounds in black tea infusions by combining instrumental analysis and human bioresponse. J. Agric. Food Chem. 2004, 52, 3498-3508).
Samples 1 and 2 were presented in order of increasing concentrations to the panel. The panelists, wearing noseclips, were asked to determine the dilution at which a difference was detectable between the samples using the "half-tongue" test. The test was performed three times. When the panelist selected correctly, the same concentration was presented again besides one blank as a proof for the correctness of the data. The geometric mean of the last and the second last concentration was calculated and taken as the individual recognition threshold. The values between individuals and between five separate sessions differed by not more than plus or minus one dilution step.
For comparison with the mouthfeel-enhancing threshold of known ingredients in vanilla extract, the half-tongue test was repeated using vanillic acid, p-hydroxybenzoic acid, guaiacol, p-hydroxybenzaldehyde and vanillin respectively instead of sample 1.

For `O=Cc1ccc(O)cc1` [p-hydroxybenzaldehyde], the minimal effective concentration was 205 µM.

Same assay, conditions: Homo sapiens; half-tongue test, in water pH 4.5, twelve trained panelists wearing noseclips; geometric mean of last and second last concentration; read-out: Mouthfeel threshold

First: COc1cc(C(=O)O)ccc1O [Vanillic acid]
Second: COc1cc(C=O)ccc1O [Vanillin]
The minimal effective concentration of the first is 2.1-fold higher: 320 µM for the first, 150 µM for the second.

Going from `COc1cc(-c2cc(OC)c(O)c(-c3ccc(O)c(OC)c3)c2)ccc1O` [Sample 1, triguaiacol] to `COc1ccccc1O` [Guaiacol], the minimal effective concentration rises from 0.01 µM to 240 µM (24000-fold).

`O=C(O)c1ccc(O)cc1` [p-hydroxybenzoic acid] showed a minimal effective concentration of 250 µM.
